Laboratory results from patent US20260285863A1, “COMPOUNDS CAPABLE OF MODULATING GPR65” (Pathios Therapeutics Limited, priority 2023, published 2026).

Molecular target: T1, human recombinant GPR65 (Homo sapiens, UniProt Q8IYL9)
T1 construct: host or cells: 1321N1 human astrocytoma cells (1321N1-hrGPR65)
Experiment: Human GPR65 cAMP HTRF antagonist assay
Format: cell-based
Conditions: 1321N1-hrGPR65 cells, assay pH 7.2, cAMP HTRF; read-out: hGPR65 IC50
From the text: The “Human GPR65 cyclic adenosine monophosphate (cAMP) Homogeneous Time Resolved Fluorescence (HTRF) antagonist assay”, or simply “cAMP assay”, as described in the accompanying examples, can be used to measure the potency of GPR65 modulators, which is expressed as the concentration of compound required to reduce the increase in cAMP concentration upon GPR65 activation by 50% (i.e. an IC50).
Human GPR65 Cyclic Adenosine Monophosphate (cAMP) Homogeneous Time Resolved Fluorescence (HTRF) Antagonist Assay Procedure
IC50data was obtained by the following procedure:
1321N1 human astrocytoma cells stably expressing human recombinant GPR65 (1321N1-hrGPR65 cells, EuroscreenFast) were cultured according to the vendor's instructions.
Compounds were tested for their ability to antagonise GPR65, through measuring the concentration of cytoplasmic cAMP following treatment of the cells at a pH of 7.2 to activate GPR65 signalling and addition of the compound to be tested. The extent to which the expected rise in cAMP concentration upon GPR65 activation was suppressed by the added compound is indicative of its potency. The assay was carried out according to EuroscreenFast assay Methodology as follows.
On the day of the assay, test compounds were added to 384-well, low volume, white microtiter plates by acoustic dispensing. KRH buffer (5 mM KCl, 1.25 mM MgSO4, 124 mM NaCl, 25 mM HEPES, 13.3 mM Glucose, 1.25 mM KH2PO4 and 1.45 mM CaCl2) was adjusted to pH 6.5, pH 7.6 and pH 8.4 by adding NaOH. 1321N1-hGPR65 cells were rapidly thawed and diluted in KRH, pH 7.6 prior to centrifugation at 300×g for 5 min and resuspension in assay buffer (KRH, pH 7.6, supplemented with 1 mM 3-isobutyl-1-methylxanthine (IBMX) and 200 μM ethylenediaminetetraacetic acid (EDTA)). Cells were added to assay plates at a density of 2,000 cells per well in a volume of […]. Assay plates were briefly centrifuged at 100×g and then incubated at room temperature for 30 min. Cells were stimulated by the addition of 5 μL KRH, pH 6.5, to achieve an assay pH of 7.2, while control wells received […] KRH, pH 8.4 to achieve an assay pH of 7.9. Assay plates were briefly centrifuged at 100×g and then incubated at room temperature for 30 min.
Accumulation of cAMP was detected by cAMP HTRF kit (Cisbio). d2-labeled cAMP and cryptate-labeled anti-cAMP antibody in Lysis and Detection Buffer (Cisbio) were added to assay plates, and the plates were incubated at room temperature for 1 h. HTRF measurements were performed using a Pherastar FSX instrument. Acceptor and donor emission signals were measured at 665 nm and 620 nm, respectively, and HTRF ratios were calculated as signal665 nm/signal620 nm×104. Data were normalised to high and low control values and fitted with 4-parameter logistic regression to determine hGPR65 IC50 values for the test compounds, which are shown in Table 1.

T1 sequence (Q8IYL9 whole entry): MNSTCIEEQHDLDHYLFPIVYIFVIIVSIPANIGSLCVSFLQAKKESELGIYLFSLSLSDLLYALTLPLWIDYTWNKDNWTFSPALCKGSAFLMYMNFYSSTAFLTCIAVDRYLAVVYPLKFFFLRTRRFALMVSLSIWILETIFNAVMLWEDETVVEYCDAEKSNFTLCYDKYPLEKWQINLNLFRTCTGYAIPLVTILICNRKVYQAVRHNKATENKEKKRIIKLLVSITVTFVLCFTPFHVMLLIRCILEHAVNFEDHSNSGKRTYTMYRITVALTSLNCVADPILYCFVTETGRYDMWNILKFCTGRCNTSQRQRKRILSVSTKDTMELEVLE

SMILES | IC50 [nM]
O=C(Nc1cc(Cl)c(-c2ccc(OC(C(F)F)C(F)F)nc2)cc1F)N1[C@H]2CC[C@@H]1c1c[nH]c(=O)cc1C2 [Compound 13, (6S,9R)-N-(5-chloro-2-fluoro-4-(6-((1,1,3,3-tetrafluoropropan-2-yl)oxy)pyridin-3-yl)phenyl)-3-oxo-3,5,6,7,8,9-hexahydro-2H-6,9-epiminocyclohepta[c]pyridine-10-carboxamide] | < 500
O=C(Nc1cc(Cl)c(-c2ccc(OCC3CC3(F)F)nc2)cc1F)N1[C@H]2CC[C@@H]1c1ccnc(F)c1C2 (stereo partly drawn) [Compound 14, (5R,8S)-N-(5-chloro-4-(6-((2,2-difluorocyclopropyl)methoxy)pyridin-3-yl)-2-fluorophenyl)-1-fluoro-6,7,8,9-tetrahydro-5H-5,8-epiminocyclohepta[c]pyridine-10-carboxamide] | < 500
COCCOCCO[C@H]1C[C@@H](Oc2ccc(-c3cc(F)c(NC(=O)N4[C@H]5CC[C@@H]4c4c[nH]c(=O)cc4C5)cc3Cl)cn2)C1 [Compound 15, (6S,9R)-N-(5-chloro-2-fluoro-4-(6-((1s,3S)-3-(2-(2-methoxyethoxy)ethoxy)cyclobutoxy)pyridin-3-yl)phenyl)-3-oxo-3,5,6,7,8,9-hexahydro-2H-6,9-epiminocyclohepta[c]pyridine-10-carboxamide] | < 500
O=C(Nc1cc(Cl)c(-c2ccc(OCC3CCOC3)nc2)cc1F)N1[C@H]2CC[C@@H]1c1c[nH]c(=O)cc1C2 (stereo partly drawn) [Compound 16, (6S,9R)-N-(5-chloro-2-fluoro-4-(6-((tetrahydrofuran-3-yl)methoxy)pyridin-3-yl)phenyl)-3-oxo-3,5,6,7,8,9-hexahydro-2H-6,9-epiminocyclohepta[c]pyridine-10-carboxamide] | < 500
Cc1cc(NC(=O)N2[C@H]3CC[C@@H]2c2c[nH]c(=O)cc2C3)c(F)cc1-c1ccc2nsnc2c1 [Compound 17, (6S,9R)-N-(4-(benzo[c][1,2,5]thiadiazol-5-yl)-2-fluoro-5-methylphenyl)-3-oxo-3,5,6,7,8,9-hexahydro-2H-6,9-epiminocyclohepta[c]pyridine-10-carboxamide] | < 500
Cc1cc(NC(=O)N2[C@H]3CC[C@@H]2c2c[nH]c(=O)cc2C3)c(F)cc1-c1ccc(OCC(F)(F)F)nc1 [Compound 18, (6S,9R)-N-(2-fluoro-5-methyl-4-(6-(2,2,2-trifluoroethoxy)pyridin-3-yl)phenyl)-3-oxo-3,5,6,7,8,9-hexahydro-2H-6,9-epiminocyclohepta[c]pyridine-10-carboxamide] | < 500
Cc1nc2cc(-c3cc(F)c(NC(=O)N4[C@H]5CC[C@@H]4c4c[nH]c(=O)cc4C5)cc3Cl)ccc2n1C [Compound 19, (6S,9R)-N-(5-chloro-4-(1,2-dimethyl-1H-benzo[d]imidazol-5-yl)-2-fluorophenyl)-3-oxo-3,5,6,7,8,9-hexahydro-2H-6,9-epiminocyclohepta[c]pyridine-10-carboxamide] | 500 to 5000
O=C(Nc1cc(Cl)c(-c2ccc(OCC3CCC3)nc2)cc1F)N1[C@H]2CC[C@@H]1c1n[nH]c(=O)cc1C2 [Compound 20, (6S,9R)-N-(5-chloro-4-(6-(cyclobutylmethoxy)pyridin-3-yl)-2-fluorophenyl)-3-oxo-3,5,6,7,8,9-hexahydro-2H-6,9-epiminocyclohepta[c]pyridazine-10-carboxamide] | < 500
O=C(Nc1ccc(-c2ccc(OCC(F)(F)F)nc2)cc1F)N1[C@H]2CC[C@@H]1c1n[nH]c(=O)cc1C2 [Compound 21, (6S,9R)-N-(2-fluoro-4-(6-(2,2,2-trifluoroethoxy)pyridin-3-yl)phenyl)-3-oxo-3,5,6,7,8,9-hexahydro-2H-6,9-epiminocyclohepta[c]pyridazine-10-carboxamide] | < 500
COCCOCCO[C@H]1C[C@H](Oc2ccc(-c3cc(F)c(NC(=O)N4[C@H]5CC[C@@H]4c4c[nH]c(=O)cc4C5)cc3Cl)cn2)C1 [Compound 22, (6S,9R)-N-(5-chloro-2-fluoro-4-(6-((1r,3R)-3-(2-(2-methoxyethoxy)ethoxy)cyclobutoxy)pyridin-3-yl)phenyl)-3-oxo-3,5,6,7,8,9-hexahydro-2H-6,9-epiminocyclohepta[c]pyridine-10-carboxamide] | < 500
